Reference: patent US10232043B2, “Photoactivated molecules for light-induced modulation of the activity of electrically excitable cells and methods of using the same” (UNIVERSITY OF SOUTHERN CALIFORNIA, priority 2015, dated 2019)
“Also recorded” adds a separate entry of the source.

Legend:
HEK cells = assay: Membrane incorporation of Rubpy-C17 analogues; type: cell-based; conditions: FIGS. 6A-6C, 7A-7B
Text: In some examples, RubpyC17 can be changed to provide a non-toxic, faster, and highly reversible system that imparts light sensitivity in multiple biological systems. In some embodiments, changing of bipyridine substituents (as shown in as illustrated in FIG. 3) can result in a Ru^3+/2+ reduction potential dynamic range of several hundred millivolts. […] In some examples, the carboxylic acid substituents probe the mechanistic role of charge in the photovoltaic nanoswitch system in addition to the role of the reduction potential. FIGS. 5A-5D illustrates an embodiment of various substituents in place of RubpyC17 in HEK cells. For example, FIG. 5A illustrates TMbpyRubpyC17(PF6) substituted for RubpyC17; FIG. 5B illustrates TMbpyRubpyC17(Cl) substituted for RubpyC17; FIG. 5C illustrates COOHbpyRubpyC17(Na) substituted for RubpyC17; and FIG. 5C illustrates COOHbpyRubpyC17(tBu4N+) substituted for RubpyC17.
In some examples, the RubpyC17 molecule can be configured for non-specific targeting and optimized membrane incorporation of photoactive molecular artificial retinas (“MARs”).
In some embodiments, membrane incorporation can be an important characteristic of the current system. In some embodiments, changing the counter ion identity of Rubpy-C17 can help to change membrane incorporation properties. […] FIG. 7C illustrates the effect that a treatment of 1 μM of Rubpy-Oleic Acid has on HEK cells while FIG. 7D illustrates the effect that a treatment of 10 μM of Rubpy-Linoleic Acid has on HEK cells.

HEK293T cells = assay: Effect of PF6:Cl counter ion ratio of Rubpy-C17 on HEK293T cells; type: cell-based; conditions: for membrane incorporation: 10 minutes; for Comments (compound stability): degradation seen after two months
Description: In some embodiments, the 20 mg of Rubpy-C17 is stored in −20° C. with desiccant in the dark. […] 253 μl of DMSO is then added into the original bottle containing Rubpy-C17 to make 100 mM stock solution. In some embodiments, the stock solution is aliquot and stored in −20° C. with desiccant in the dark.
In some examples, on the day before or on, the same day of the experiment, the following 2.5 mM external solution is prepared using the following steps. The external solution is warmed up to 37° C. For […] of the external solution, 0.176 grams of absorbic acid was added. Another 240 μL 5M NaOH was added to adjust the pH to between about 7.2-7.4. The absorbic solution can then be filtered through a 0.2 μm filter. The solution is then stored in the dark in 4° C. In some examples, the solution must be used within one week.
The 100 mM of Rubpy solution is first thawed from −20° C. 100 mM Rubpy is then diluted to 10 mM Rubpy: 2 μL 100 mM Rubpy+18 μL DMSO. In some examples, this is vortexted to mix and then centrifuged down with a small bench-top. The culture, medium is aspirated and the cells are rinsed with external solution several times. The external solution can then be aspirated. In some examples, enough of the external solution is left on the cells to prevent it from drying. 500 μL of external solution with 2.5 mM of ascorbic acid can then be added.
In some examples, 1 μL of 10 mM of Rubpy to […] of external solution with 2.5 mM ascorbic acid and mixed well. This should produce a final concentration of 10 μM of Rubpy with 0.1% DMSO. This mixed solution is then added to the above referenced cells and incubated for 10 minutes.
The solution can then be aspirated from the plate and rinsed with regular external solution several times. 2 mL of external solution is added to 2.5 mM ascorbic acid for recording. For each plate, a baseline control is taken by recording the first cell before performing any light-stimulating protocol. The light-stimulus can include 10-40 s in duration and bandpassed at 455-495 nm (blue light).
As discussed above, the mixture a 10 μM of RubpyC17 solution was placed in 10 HEK293T cells.

[1] = Time-resolved luminescence and electron transfer of D-B-A complex; type: physicochemical; conditions: degassed dichloromethane, excited at 355 nm, monitored at 560 nm
Description: Time-resolved emission spectroscopy was used to characterize the MLCT excited state of the D-B-A complex (see FIGS. 24A and 24B). Luminescence decay kinetics were recorded in degassed dichloromethane. The D-B-A complex was excited at 355 nm with an 8-ns laser pulse and luminescence was monitored at 560 nm. […] For comparison, the MLCT lifetime of the reference complex, [Re(CO)3(bpy)(py)]+, determined under identical experimental conditions, is 550 ns.
Self-association often leads to enhanced quenching, due to the formation of aggregates with short intermolecular donor-acceptor distances.
While the rate of intramolecular electron transfer is concentration independent, intermolecular quenching processes vary predictably with concentration. As such, it is possible to separate the two quenching mechanisms and obtain rate constants for each. Time-resolved luminescence measurements at a series of D-B-A concentrations allow a second order intermolecular quenching rate to be determined. As the concentration was increased, shorter lifetimes were recorded in both dichloromethane and acetonitrile. […]
Intramolecular electron transfer may also proceed through a through-space coupling mechanism. […] If β values in this range are used, the through-solvent intramolecular electron transfer rate is predicted to fall between 10^4 and 10^6 s^−1, which is competitive with calculated through-bond tunneling rates.

chromaffin cells = assay: Cell-attached patch test for membrane perforation; type: cell-based, mouse; conditions: in patch pipette, RubpyC17 18 μM, 10 min, amphotericin B within 5 min
Text: FIGS. 21A-21H depict data from various experiments related to characteristics of RubpyC17-loaded cells. […] Inset images shown to the right of trace confirmed proper integration of RubpyC17 in patched cells. FIGS. 21C-21E show the light-induced action potential firing in chromaffin cells was not due to biophysical changes in voltage-gated ion channels as there were no significant changes in current-voltage relationships (21C-21D) nor in steady-state activation curve (21E) in RubpyC17-loaded chromaffin cells before (open circle) or during (open circle) light illumination. […] Peak inward currents from each stimulation jump were plotted against corresponding stimulating voltages (n=6). […] Data from representative cell is shown (n=5). […] Currents resulting from capacitor-like behavior of chromaffin cell membranes during hyperpolarizing jumps to −85 mV from a resting membrane potential of −80 mV were recorded 5 min following giga-seal formation for amphoterecin B (bottom trace) or 10 min following giga-seal formation for RubpyC17 (top trace).
Finally, to test whether illumination of RubpyC17 incorporated in cell membranes causes nonspecific membrane poration or other damage, 18 μM RubpyC17 was loaded inside a patch pipette and attached to a cell (gigaseal formation) in the cell-attached configuration. This is the same configuration used routinely for perforated-patch recording. […]

Nav1.6 = Nav1.6 (Homo sapiens, UniProt Q9UQD0); conditions: extracellular loop S1-S2 and S3-S4 in domain II; cited from earlier work
Sequence of Nav1.6 (Q9UQD0 whole entry, the tested form may be a part): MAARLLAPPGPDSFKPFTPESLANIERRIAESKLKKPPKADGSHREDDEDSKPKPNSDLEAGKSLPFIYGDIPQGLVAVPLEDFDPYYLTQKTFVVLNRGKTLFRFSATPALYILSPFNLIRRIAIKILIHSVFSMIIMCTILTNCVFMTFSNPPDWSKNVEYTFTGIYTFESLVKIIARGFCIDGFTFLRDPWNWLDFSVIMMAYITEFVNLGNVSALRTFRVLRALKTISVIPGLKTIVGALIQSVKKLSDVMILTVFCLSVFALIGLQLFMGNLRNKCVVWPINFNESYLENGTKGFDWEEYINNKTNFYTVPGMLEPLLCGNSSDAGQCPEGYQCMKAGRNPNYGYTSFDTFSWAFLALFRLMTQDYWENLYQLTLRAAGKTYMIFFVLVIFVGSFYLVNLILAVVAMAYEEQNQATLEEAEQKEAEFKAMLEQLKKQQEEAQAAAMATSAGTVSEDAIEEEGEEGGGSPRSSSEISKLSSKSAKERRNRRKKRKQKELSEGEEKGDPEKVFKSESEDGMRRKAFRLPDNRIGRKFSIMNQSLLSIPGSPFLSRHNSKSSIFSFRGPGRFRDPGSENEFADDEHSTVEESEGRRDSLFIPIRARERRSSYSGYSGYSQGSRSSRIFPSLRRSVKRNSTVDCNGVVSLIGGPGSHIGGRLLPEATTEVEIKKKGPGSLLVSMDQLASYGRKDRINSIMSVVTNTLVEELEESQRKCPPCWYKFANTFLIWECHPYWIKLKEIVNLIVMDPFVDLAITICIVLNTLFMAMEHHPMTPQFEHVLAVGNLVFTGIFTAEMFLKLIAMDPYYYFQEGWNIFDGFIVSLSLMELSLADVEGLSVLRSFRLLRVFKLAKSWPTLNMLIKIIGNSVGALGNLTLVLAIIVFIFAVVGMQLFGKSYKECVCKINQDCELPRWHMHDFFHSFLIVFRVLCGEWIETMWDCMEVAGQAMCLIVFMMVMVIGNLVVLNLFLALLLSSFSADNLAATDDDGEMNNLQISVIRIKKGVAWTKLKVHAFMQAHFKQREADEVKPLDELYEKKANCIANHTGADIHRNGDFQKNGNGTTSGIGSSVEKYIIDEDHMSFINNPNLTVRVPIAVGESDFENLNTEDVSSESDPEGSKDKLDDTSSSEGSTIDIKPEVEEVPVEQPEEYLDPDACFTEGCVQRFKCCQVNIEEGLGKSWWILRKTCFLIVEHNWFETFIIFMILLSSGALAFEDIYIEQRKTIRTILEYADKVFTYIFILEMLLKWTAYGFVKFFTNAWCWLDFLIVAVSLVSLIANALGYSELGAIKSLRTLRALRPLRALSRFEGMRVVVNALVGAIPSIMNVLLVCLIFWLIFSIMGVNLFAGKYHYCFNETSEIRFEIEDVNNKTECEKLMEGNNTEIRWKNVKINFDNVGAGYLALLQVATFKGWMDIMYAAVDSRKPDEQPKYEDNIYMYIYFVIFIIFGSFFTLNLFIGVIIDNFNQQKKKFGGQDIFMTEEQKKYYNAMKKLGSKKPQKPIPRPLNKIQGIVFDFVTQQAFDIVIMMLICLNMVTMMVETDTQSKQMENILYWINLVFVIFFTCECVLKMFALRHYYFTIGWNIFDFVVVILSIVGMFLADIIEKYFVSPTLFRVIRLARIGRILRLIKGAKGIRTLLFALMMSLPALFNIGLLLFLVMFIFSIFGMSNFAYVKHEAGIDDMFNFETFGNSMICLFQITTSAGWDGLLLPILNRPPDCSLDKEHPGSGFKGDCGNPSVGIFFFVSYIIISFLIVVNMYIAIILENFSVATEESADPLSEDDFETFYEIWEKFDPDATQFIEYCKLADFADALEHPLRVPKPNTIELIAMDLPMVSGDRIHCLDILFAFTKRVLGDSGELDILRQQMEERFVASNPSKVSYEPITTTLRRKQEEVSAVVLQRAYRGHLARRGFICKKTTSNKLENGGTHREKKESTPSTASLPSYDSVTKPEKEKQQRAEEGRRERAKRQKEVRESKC

CCCCCCCCCCCCCCCCCc1ccnc(-c2cc(C)ccn2)c1.[Cl-].[Cl-].[Ru+2].c1ccc(-c2ccccn2)nc1.c1ccc(-c2ccccn2)nc1 [PF6:Cl 0:1]
membrane incorporation (HEK cells): exceptional membrane incorporation | Cell Death (HEK293T cells; 10 μM, HEK293T cells): cell death was observed | membrane incorporation (HEK293T cells; 10 μM, HEK293T cells): even incorporation | membrane incorporation (HEK293T cells; 10 μM, HEK293T cells, listed as Rubpy-C17 with only CL Counter ions): good membrane incorporation was initially observed | Comments (compound stability) (HEK293T cells): subsequent degradation was observed after two months; also recorded: Unstable, | Comments (compound stability) (HEK293T cells; listed as Rubpy-C17 with only CL Counter ions): compound degradation was seen subsequently after two months

CCCCCCCC/C=C\CCCCCCCC(=O)Nc1cc2cccnc2c2ncccc12.[Ru+2].c1ccc(-c2ccccn2)nc1.c1ccc(-c2ccccn2)nc1 [Ruphen-C18:1]
membrane incorporation (HEK cells): exceptional membrane incorporation; also recorded: excellent membrane incorporation

CCCCC/C=C\C/C=C\CCCCCCCC(=O)Nc1cc2cccnc2c2ncccc12.[Ru+2].c1ccc(-c2ccccn2)nc1.c1ccc(-c2ccccn2)nc1 [Ruphen-C18:2]
membrane incorporation (HEK cells): excellent membrane incorporation

[C-]#[O+].[C-]#[O+].[C-]#[O+].[Re+].c1ccc(-c2ccccn2)nc1.c1ccncc1 [[Re(CO)3(bpy)(py)]+]
luminescence (MLCT) lifetime [1]: 550 ns

C[C@@H]1[C@H](O)[C@@H](C)/C=C/C=C/C=C/C=C/C=C/C=C/C=C/[C@H](O[C@@H]2O[C@H](C)[C@@H](O)[C@H](N)[C@@H]2O)C[C@@H]2O[C@](O)(C[C@@H](O)C[C@@H](O)[C@H](O)CC[C@@H](O)C[C@@H](O)CC(=O)O[C@H]1C)C[C@H](O)[C@H]2C(=O)O [amphotericin B, reference compound]
capacitive charging transient (membrane perforation) (chromaffin cells): sizable capacitive charging transient

CCCCCCCCCCCCCCCCCc1ccnc(-c2cc(C)ccn2)c1.Cc1cnc(-c2cc(C)c(C)cn2)cc1C.Cc1cnc(-c2cc(C)c(C)cn2)cc1C.[Ru+2] [tetramethyl-substituted bpy Rubpy-C17]
membrane incorporation (HEK cells): does not evenly incorporate

CssII
binding affinity (Nav1.6): nanomolar affinity
